According to ChEMBL document CHEMBL3991601, “The target landscape of clinical kinase drugs” (Science, 2017):
Active and inactive are the calls of the source. For most assays here, no stated cut-off is given here; in the data, actives have a measured Kd and inactives only a lower limit.

How the values were obtained:
[1] = target: Rho-associated protein kinase 1 (Homo sapiens, UniProt Q13464)
[2] = target: Receptor-interacting serine/threonine-protein kinase 2 (Homo sapiens, UniProt O43353)
[3] = target: Serine/threonine-protein kinase PAK 4 (Homo sapiens, UniProt O96013)
[4] = target: T1, DNA replication licensing factor MCM4 (Homo sapiens, UniProt P33991)
T1 sequence (P33991 whole entry): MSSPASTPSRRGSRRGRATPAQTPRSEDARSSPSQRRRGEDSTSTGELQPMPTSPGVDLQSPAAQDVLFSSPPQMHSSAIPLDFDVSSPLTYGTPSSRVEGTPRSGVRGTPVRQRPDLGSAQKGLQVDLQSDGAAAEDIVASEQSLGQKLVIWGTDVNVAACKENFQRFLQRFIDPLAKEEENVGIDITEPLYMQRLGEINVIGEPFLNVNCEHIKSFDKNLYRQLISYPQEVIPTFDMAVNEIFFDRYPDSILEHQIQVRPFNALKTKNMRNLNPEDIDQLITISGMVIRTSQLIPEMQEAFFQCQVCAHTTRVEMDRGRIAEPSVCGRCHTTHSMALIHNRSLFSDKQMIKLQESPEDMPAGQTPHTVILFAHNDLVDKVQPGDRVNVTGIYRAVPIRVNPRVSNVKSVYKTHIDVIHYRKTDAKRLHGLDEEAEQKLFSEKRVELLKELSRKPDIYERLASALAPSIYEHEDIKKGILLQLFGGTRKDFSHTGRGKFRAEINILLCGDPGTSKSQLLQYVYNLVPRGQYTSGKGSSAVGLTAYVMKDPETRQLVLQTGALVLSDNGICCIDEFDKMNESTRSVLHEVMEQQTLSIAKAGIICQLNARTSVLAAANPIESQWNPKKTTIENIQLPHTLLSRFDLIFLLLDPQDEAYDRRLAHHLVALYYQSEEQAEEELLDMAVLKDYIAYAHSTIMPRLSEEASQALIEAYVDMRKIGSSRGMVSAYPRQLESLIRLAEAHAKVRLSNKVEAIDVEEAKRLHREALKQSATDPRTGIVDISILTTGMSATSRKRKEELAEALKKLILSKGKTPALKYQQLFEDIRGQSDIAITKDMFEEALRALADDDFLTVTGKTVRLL

[5] = target: T2, Beta-adrenergic receptor kinase 1 (Homo sapiens, UniProt P25098)
T2 sequence (P25098 whole entry): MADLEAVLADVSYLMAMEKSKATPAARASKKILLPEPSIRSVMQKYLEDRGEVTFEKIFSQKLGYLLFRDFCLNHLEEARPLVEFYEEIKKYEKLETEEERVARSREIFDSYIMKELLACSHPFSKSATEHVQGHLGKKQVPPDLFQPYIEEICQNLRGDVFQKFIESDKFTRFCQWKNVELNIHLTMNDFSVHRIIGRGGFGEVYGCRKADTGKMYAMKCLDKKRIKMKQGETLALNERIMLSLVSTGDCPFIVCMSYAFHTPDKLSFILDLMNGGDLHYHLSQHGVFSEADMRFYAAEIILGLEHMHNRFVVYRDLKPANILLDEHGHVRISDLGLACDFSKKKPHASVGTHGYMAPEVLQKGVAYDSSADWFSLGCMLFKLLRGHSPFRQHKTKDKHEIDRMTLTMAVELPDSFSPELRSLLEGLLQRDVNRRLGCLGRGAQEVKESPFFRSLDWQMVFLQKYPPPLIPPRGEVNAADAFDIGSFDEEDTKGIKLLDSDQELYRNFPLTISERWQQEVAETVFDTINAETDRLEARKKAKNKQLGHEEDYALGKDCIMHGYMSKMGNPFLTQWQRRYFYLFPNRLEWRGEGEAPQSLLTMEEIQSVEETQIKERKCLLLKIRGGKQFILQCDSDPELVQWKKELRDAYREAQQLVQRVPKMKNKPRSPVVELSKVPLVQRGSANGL

[6] = target: Insulin-like growth factor 1 receptor (Homo sapiens, UniProt P08069)
[7] = target: Ras-related protein Rab-6A (Homo sapiens, UniProt P20340)
[8] = target: Cyclin-dependent kinase 6 (Homo sapiens, UniProt Q00534)
[9] = target: T3, Serine/threonine-protein kinase Nek9 (Homo sapiens, UniProt Q8TD19)
T3 sequence (Q8TD19 whole entry): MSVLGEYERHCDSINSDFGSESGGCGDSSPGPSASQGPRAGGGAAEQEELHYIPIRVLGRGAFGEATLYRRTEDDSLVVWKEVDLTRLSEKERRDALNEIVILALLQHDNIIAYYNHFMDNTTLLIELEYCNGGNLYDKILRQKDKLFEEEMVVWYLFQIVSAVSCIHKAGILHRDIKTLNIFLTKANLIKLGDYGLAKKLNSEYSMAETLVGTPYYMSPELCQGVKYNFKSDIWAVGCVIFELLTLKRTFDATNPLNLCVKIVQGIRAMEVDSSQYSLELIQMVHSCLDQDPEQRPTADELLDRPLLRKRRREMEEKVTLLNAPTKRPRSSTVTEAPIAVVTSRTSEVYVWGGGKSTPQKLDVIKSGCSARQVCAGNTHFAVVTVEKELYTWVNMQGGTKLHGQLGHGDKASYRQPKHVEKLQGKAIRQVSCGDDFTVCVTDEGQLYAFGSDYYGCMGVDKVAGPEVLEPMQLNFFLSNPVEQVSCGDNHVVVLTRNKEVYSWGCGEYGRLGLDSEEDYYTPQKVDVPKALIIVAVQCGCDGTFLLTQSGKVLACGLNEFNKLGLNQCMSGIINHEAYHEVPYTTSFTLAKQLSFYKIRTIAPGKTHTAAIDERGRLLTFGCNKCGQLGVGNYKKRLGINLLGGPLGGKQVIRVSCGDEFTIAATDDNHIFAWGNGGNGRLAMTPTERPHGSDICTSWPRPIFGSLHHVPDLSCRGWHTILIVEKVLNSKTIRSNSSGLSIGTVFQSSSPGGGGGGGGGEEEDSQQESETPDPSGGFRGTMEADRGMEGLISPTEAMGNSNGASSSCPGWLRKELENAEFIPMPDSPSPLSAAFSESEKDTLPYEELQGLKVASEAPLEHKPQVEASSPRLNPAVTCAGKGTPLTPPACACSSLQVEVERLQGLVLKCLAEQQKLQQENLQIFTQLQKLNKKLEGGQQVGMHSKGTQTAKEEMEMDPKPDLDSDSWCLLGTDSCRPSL

[10] = target: Calcium/calmodulin-dependent protein kinase type II subunit delta (Homo sapiens, UniProt Q13557)
[11] = target: Mitogen-activated protein kinase 11 (Homo sapiens, UniProt Q15759)

Measured: Kd

Mitogen-activated protein kinase 11, sequence (Q15759 whole entry): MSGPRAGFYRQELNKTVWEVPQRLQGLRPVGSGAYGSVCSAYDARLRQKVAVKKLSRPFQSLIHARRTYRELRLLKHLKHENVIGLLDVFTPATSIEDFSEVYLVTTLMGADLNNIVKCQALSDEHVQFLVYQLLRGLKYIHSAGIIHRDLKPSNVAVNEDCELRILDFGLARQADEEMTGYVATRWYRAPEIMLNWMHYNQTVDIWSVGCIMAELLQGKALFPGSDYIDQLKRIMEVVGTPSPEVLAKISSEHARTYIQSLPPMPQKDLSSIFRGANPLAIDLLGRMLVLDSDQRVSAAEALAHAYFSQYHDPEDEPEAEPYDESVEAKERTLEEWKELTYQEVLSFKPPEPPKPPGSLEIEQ
Receptor-interacting serine/threonine-protein kinase 2, sequence (O43353 whole entry): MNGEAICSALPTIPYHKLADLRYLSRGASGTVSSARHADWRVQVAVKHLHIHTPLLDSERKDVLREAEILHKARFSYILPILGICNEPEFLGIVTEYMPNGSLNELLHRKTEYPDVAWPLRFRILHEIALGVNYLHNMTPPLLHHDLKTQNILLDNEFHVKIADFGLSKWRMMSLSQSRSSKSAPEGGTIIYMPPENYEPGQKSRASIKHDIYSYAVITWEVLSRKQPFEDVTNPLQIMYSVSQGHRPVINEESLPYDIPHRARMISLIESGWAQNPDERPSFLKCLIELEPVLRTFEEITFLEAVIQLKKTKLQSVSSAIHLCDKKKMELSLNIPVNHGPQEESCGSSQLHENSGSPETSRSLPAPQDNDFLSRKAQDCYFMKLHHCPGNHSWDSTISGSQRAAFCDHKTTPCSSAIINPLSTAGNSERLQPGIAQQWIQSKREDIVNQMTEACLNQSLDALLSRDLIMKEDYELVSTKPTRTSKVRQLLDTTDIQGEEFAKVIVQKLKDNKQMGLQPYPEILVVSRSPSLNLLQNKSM
Cyclin-dependent kinase 6, sequence (Q00534 whole entry): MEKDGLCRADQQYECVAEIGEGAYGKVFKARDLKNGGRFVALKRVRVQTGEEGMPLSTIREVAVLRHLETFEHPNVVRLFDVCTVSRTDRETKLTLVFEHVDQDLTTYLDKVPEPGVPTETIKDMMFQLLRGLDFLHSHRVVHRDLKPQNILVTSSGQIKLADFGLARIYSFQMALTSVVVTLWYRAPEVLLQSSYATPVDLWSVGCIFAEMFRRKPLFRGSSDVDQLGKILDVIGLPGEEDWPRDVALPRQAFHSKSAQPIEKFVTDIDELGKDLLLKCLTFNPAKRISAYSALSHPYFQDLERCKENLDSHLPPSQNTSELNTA
Serine/threonine-protein kinase PAK 4, sequence (O96013 whole entry): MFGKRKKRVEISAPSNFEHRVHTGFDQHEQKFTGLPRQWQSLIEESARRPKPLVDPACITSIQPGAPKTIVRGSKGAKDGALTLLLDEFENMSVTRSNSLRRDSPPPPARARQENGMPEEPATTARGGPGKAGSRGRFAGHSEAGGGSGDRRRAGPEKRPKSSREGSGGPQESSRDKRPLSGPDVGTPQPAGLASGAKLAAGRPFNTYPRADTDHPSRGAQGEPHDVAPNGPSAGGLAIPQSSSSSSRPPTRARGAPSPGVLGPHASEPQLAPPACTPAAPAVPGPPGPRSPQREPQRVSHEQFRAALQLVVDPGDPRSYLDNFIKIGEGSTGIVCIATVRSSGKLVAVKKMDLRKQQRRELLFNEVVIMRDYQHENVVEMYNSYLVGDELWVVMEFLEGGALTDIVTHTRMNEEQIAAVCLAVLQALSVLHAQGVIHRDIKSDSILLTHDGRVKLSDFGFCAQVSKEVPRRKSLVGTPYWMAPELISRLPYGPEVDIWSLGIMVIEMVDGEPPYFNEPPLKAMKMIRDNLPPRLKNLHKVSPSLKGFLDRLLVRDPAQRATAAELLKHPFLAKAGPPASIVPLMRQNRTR
Rho-associated protein kinase 1, sequence (Q13464 whole entry): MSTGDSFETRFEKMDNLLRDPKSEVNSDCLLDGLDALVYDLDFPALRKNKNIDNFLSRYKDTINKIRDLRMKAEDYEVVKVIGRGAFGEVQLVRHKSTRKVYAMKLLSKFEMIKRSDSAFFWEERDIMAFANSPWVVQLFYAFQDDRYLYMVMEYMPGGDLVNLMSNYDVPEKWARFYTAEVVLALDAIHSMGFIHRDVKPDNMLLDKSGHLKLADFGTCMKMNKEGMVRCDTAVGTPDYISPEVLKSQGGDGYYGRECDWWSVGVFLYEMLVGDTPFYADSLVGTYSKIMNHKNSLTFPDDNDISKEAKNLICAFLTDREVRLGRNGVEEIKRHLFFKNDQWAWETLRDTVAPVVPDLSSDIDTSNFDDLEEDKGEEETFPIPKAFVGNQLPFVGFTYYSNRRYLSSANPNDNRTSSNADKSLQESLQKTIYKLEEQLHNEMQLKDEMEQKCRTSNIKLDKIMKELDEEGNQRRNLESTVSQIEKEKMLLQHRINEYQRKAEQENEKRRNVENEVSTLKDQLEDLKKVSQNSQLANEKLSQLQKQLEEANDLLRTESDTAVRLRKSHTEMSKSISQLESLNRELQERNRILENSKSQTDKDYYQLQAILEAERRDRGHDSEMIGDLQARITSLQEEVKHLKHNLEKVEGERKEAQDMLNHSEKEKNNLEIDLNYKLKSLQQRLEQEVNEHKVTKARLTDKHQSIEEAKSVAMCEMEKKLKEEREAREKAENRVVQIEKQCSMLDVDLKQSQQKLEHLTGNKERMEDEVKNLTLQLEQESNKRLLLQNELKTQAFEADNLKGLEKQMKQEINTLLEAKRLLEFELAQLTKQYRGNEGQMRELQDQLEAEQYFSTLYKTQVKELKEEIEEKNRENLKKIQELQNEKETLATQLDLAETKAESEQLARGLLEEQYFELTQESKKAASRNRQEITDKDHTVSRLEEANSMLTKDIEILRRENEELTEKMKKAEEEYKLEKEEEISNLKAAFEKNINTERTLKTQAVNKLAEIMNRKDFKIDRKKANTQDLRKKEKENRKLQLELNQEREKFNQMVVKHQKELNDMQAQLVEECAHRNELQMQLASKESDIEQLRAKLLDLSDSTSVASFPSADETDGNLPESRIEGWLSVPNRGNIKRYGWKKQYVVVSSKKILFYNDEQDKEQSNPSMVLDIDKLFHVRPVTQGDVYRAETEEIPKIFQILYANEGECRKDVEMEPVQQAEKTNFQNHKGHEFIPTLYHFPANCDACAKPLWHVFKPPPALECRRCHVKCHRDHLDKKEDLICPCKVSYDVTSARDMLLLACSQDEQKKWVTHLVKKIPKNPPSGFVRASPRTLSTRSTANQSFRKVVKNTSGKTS
Calcium/calmodulin-dependent protein kinase type II subunit delta, sequence (Q13557 whole entry): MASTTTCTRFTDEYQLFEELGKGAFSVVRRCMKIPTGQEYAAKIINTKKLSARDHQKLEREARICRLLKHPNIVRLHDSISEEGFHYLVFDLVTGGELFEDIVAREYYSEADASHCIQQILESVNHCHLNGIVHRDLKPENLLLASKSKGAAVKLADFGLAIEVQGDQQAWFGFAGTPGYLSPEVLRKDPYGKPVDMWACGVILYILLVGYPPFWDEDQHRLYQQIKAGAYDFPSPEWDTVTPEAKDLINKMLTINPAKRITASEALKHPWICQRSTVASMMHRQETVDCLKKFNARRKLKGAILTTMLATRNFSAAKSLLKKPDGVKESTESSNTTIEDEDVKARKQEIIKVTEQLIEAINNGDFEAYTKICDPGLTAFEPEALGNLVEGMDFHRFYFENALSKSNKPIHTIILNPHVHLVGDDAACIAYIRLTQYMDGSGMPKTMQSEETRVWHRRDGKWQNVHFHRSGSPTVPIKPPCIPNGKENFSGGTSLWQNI
Insulin-like growth factor 1 receptor, sequence (P08069 31-736 limits assumed): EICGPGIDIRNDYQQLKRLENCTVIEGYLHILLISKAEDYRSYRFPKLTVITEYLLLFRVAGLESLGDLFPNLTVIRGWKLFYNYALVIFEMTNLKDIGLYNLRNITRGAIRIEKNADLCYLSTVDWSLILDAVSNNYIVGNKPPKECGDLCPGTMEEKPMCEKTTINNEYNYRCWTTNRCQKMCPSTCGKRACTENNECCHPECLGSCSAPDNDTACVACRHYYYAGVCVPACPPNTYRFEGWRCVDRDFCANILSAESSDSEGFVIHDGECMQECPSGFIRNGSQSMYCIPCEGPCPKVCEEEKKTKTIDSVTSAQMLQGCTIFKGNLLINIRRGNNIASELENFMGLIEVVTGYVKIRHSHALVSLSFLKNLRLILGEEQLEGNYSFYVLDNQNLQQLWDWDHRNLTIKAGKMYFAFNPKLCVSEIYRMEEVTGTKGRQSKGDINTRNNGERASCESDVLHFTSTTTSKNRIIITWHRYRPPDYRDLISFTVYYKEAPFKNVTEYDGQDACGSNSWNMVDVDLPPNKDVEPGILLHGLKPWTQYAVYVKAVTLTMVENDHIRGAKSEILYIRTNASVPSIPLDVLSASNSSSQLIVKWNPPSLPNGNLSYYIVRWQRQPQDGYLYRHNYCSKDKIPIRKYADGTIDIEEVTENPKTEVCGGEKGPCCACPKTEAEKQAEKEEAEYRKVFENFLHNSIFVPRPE
Insulin-like growth factor 1 receptor, sequence (P08069 741-1367 limits assumed): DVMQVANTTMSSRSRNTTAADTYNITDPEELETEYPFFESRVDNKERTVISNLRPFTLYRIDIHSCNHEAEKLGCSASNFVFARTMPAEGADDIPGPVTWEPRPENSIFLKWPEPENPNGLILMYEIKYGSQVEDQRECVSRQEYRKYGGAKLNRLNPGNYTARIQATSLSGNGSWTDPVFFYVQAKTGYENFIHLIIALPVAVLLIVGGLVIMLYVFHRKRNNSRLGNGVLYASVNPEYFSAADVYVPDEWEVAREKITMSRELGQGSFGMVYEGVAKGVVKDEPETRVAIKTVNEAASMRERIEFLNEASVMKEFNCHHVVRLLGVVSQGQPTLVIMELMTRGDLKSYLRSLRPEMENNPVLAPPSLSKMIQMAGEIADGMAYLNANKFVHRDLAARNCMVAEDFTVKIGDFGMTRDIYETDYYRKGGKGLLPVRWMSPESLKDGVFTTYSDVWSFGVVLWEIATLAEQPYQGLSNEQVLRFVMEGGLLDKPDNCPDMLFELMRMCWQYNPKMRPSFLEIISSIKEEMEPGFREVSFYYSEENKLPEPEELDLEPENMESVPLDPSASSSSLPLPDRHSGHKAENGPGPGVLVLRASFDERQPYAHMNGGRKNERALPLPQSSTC

COCCNCc1ccc(-c2cc3nccc(Oc4ccc(NC(=S)NC(=O)Cc5ccc(F)cc5)cc4F)c3s2)nc1 [GLESATINIB]
inactive: [1] > 30 µM | [2] > 30 µM | [3] > 30 µM | [4] > 30 µM | [5] > 30 µM | [6] > 30 µM | [7] > 30 µM | [8] > 30 µM | [9] > 30 µM | [10] > 30 µM | [11] > 30 µM

CNS(=O)(=O)Nc1nccc(Cc2c(C)c3ccc(Oc4ncccn4)cc3oc2=O)c1F [AVUTOMETINIB]
inactive: [1] > 30 µM | [2] > 30 µM | [3] > 30 µM | [4] > 30 µM | [5] > 30 µM | [6] > 30 µM | [7] > 30 µM | [8] > 30 µM | [9] > 30 µM | [10] > 30 µM | [11] > 30 µM
